Laboratory results published in patent publication US20120128654A1, “Allantoin Administration for the Treatment of Neurodegenerative Disease and Neurotrauma” (UNIVERSITY OF CINCINNATI, priority 2009, published 2012).
“Also recorded” adds a separate entry of the source.

Key:
[1] = Oral allantoin administration (gavage), plasma allantoin levels in rats; format: in vivo, Sprague Dawley rats
Description: Rats also received oral allantoin via gastric gavage. Rats were firmly restrained via grasping the loose skin of the neck and back to immobilize the head. While maintaining the rat in an upright position, the gavage needle (20 G×1½″) was passed through the side of the mouth and advanced into the esophagus by following the roof of the mouth and advanced further toward the stomach. After the needle was passed to the correct length, 125 mg of allantoin, dissolved in water or water, was injected. This procedure was repeated daily for five days.
For plasma analysis of allantoin venous blood was obtained from the right ventricle (rat) and collected from repeated blood draws (African green monkey). Blood was immediately centrifuged at 10,500 rpms (this needs to be in G) for 5 minutes. Supernatant was then removed and analyzed for allantoin. […] Following a 15 minute incubation, absorbance was read on a spectrometer at 340 nm. […] Following a 10 minute incubation absorbance was once again measured at 340 nm. The final absorbance was subtracted from the absorbance following the addition of allantoinase. […]
Rats received oral allantoin or water via gavage once daily for 5 days. […] Allantoin levels in plasma were determined utilizing the enzymatic detection assay. […]

[2] = in vivo; cited from earlier work

For `NC(=O)NC1NC(=O)NC1=O` (stereo not drawn) [allantoin], which plasma allantoin levels ([1]; rat, 125 mg oral gavage once daily for 5 days, blood two hours following final dose, vs water) is on record?
The plasma allantoin levels was “doubling; also recorded: significant increase”.

What about the negative health consequences ([1]; rats, oral allantoin once daily for 5 days) of the same compound?
Its negative health consequences is “Neither the rats nor the monkeys exhibited any obvious negative health consequences”.

What about the antioxidant properties [2] of the same compound?
The antioxidant properties was “antioxidant properties in vivo”.
